Measured values published in patent US12728121B2, “Compositions and methods for treating idiopathic pulmonary fibrosis” (Seyltx, Inc., priority 2019, dated 2026).

Key:
Type in all cases: in vivo, Mouse/C57BL/6
[1] = Bleomycin (BLM)-induced lung fibrosis in mice: body weight over 21 days; conditions: for Percent Change in Body Weight / Body Weight: doses as Table 1; for Body Weight: group mean; for changes in body weight as compared to the BLM-vehicle group (in words): doses as Table 1, p.o. once daily
Experimental: (§1) The mouse species or strain was Mouse/C57BL/6, the mice being 8-10 week old males. Nine groups of 10 mice each were obtained from Charles River Laboratories. Each group was randomized based on body weight. Bleomycin (BLM) was obtained from Euroasias.
(§2) The mice were anesthetized with isoflurane/O2 mixture. Bleomycin (BLM) was then administered to the mice intratracheally (PennCentury)—single bolus, at 2.5 U/kg body weight in 50 μl sterile saline.
(§3) Seven days after the bleomycin is administered, and fibroblasts have generally proliferated, six of the nine groups of IT bleomycin challenged mice were be dosed orally (p.o.) once a day with Bromantane, Ifenoprodil, Radiprodil, Bemithyl, Dexamethasone, or Repirinast at specified amounts per kg of body weight (mg/kg) daily for 14 consecutive days. The amounts are set out in Table 1 below. The vehicle used was 0.5% carboxymethyl cellulose (CMC). Prifenidone was also prepared in 0.5% CMC and administrated orally once a day to one of the nine IT bleomycin challenged mice groups beginning for 14 consecutive days. Vehicle and no-BLM control groups received 0.5% CMC orally for 14 consecutive days.
Body Weight: The body weights were measured over 21 days using a laboratory balance.

BLM-induced fibrosis [2] = assay: Bleomycin (BLM)-induced lung fibrosis in mice: Gomori's Trichrome score of lung sections; conditions: for Trichrome score (average) / % reduction in fibrosis: day 21; for Trichrome score (average): BLM 2.5 U/kg intratracheal, p.o. once daily 14 days from day 7, mg/kg: Pirfenidone 300, Bromantane 20, Ifenoprodil 30, Radiprodil 30, Bemithyl 200, Dexamethasone 0.25, Repirinast 90, Normal 1.00, Vehicle 4.59; for % reduction in fibrosis: from Trichrome scores relative to vehicle and normal groups, doses as Table 1, p.o. once daily 14 days; for Trichrome score response versus BLM-vehicle group (in words) / percent reduction in lung fibrosis in comparison to the BLM-vehicle group (in words): doses as Table 1, order: Dexamethasone and Repirinast, followed by Ifenprodil and Radiprodil; for improvement in lung fibrosis, loss of body weight, Trichrome score and mortality as compared to BLM-vehicle (conclusion, in words): oral administration, Dexamethasone 0.25, Repirinast 90, Ifenprodil 30, Radiprodil 30 mg/kg
Experimental: as §1, §2, §3
On day 21 of the study, 4 hours after the last dose, the mice were sacrificed and plasma was collected and frozen for cytokine analysis (testing for IL-6, IL-12, TGFβ, IL-13 proteins, or fibrosis markers). Bronchoalveolar lavage fluid (BALF) was collected and frozen for optional cytokine analyses and cell counts pending the initial data. The lungs were then excised, weighed and fixed in formalin. Gomori's Trichrome stain, a histological stain, was used to determine collagen content.
Trichrome Score: A trichrome score measures the level of scarring to the lungs caused by the disease. The greater the trichrome score, the greater the scarring.
Formalin fixed lung samples were submitted to affiliated histopathology laboratory for histopathological analysis subjected Gomori's Trichrome stain, a histological stain, which was used to determine collagen content.
Each lung was divided into ten sections. All ten sections were stained and evaluated. A board certified veterinarian pathologist assessed the presence of lung fibrosis and severity score—The expression of collagen (associated with fibrosis) is determined from the ratio of the stained area versus the total area of the lung section.

BLM-induced fibrosis [3] = assay: Bleomycin (BLM)-induced lung fibrosis in mice: mortality rate over 21 days; conditions: doses as Table 1; for Fatality Number: deaths/mice per group over 21 days, Vehicle 2/10; for Percent Fatality: over 21 days, Vehicle 20%; for percent survival (in words): order: Dexamethasone and Repirinast, followed by Ifenprodil and Radiprodil
Experimental: as §1, §2, §3
Mortality Rate: the mortality rate in each group was also observed over 21 days.

Row | Compound | Percent Change in Body Weight ([1]; 7-Nov) [%] | Body Weight ([1]; 7-Nov) [g] | Percent Change in Body Weight ([1]; 8-Nov) [%] | Body Weight ([1]; 8-Nov) [g] | Percent Change in Body Weight ([1]; 9-Nov) [%] | Body Weight ([1]; 9-Nov) [g] | Percent Change in Body Weight ([1]; 12-Nov) [%] | Body Weight ([1]; 12-Nov) [g] | Percent Change in Body Weight ([1]; 14-Nov) [%] | Body Weight ([1]; 14-Nov) [g] | Percent Change in Body Weight ([1]; 16-Nov) [%] | Body Weight ([1]; 16-Nov) [g] | Percent Change in Body Weight ([1]; 20-Nov) [%] | Body Weight ([1]; 20-Nov) [g] | Percent Change in Body Weight ([1]; 22-Nov) [%] | Body Weight ([1]; 22-Nov) [g] | Percent Change in Body Weight ([1]; 26-Nov) [%] | Body Weight ([1]; 26-Nov) [g] | Percent Change in Body Weight ([1]; 28-Nov) [%] | Body Weight ([1]; 28-Nov) [g] | also measured
1 | Brc1ccc(NC2C3CC4CC(C3)CC2C4)cc1 (stereo not shown) [Bromantane, N-(4-bromophenyl)adamantan-2-amine] | 0.0 | 24.8 | −0.1 | 24.7 | −0.8 | 24.0 | −1.8 | 23.1 | −1.1 | 23.7 | −1.5 | 23.3 | −1.9 | 22.9 | −1.6 | 23.2 | −1.0 | 23.8 | 0.4 | 25.2 | changes in body weight as compared to the BLM-vehicle group (in words) [1]: showed improvement beginning Day 5, with the exception of Day 15; Trichrome score (average) (BLM-induced fibrosis [2]): 4.00; % reduction in fibrosis (BLM-induced fibrosis [2]): 16.4%; Fatality Number (BLM-induced fibrosis [3]): 3/10; Percent Fatality (BLM-induced fibrosis [3]): 30%
2 | C[C@@H]1C[C@H]2[C@@H]3CCC4=CC(=O)C=C[C@]4(C)[C@@]3(F)[C@@H](O)C[C@]2(C)[C@@]1(O)C(=O)CO [Dexamethasone] | 0.0 | 24.3 | −0.2 | 24.1 | −0.6 | 23.7 | −1.9 | 22.4 | −1.6 | 22.7 | −0.9 | 23.4 | −1.5 | 22.7 | −0.1 | 24.2 | 0.3 | 24.5 | 0.7 | 25.0 | changes in body weight as compared to the BLM-vehicle group (in words) [1]: showed improvement beginning on Day 5; Trichrome score (average) (BLM-induced fibrosis [2]): 2.45; Trichrome score response versus BLM-vehicle group (in words) (BLM-induced fibrosis [2]): response was better; percent reduction in lung fibrosis in comparison to the BLM-vehicle group (in words) (BLM-induced fibrosis [2]): higher; % reduction in fibrosis (BLM-induced fibrosis [2]): 59.6%; improvement in lung fibrosis, loss of body weight, Trichrome score and mortality as compared to BLM-vehicle (conclusion, in words) (BLM-induced fibrosis [2]): showed improvement; Fatality Number (BLM-induced fibrosis [3]): 2/10; percent survival (in words) (BLM-induced fibrosis [3]): higher; Percent Fatality (BLM-induced fibrosis [3]): 20%
3 | Cc1ccc2c([nH]c(=O)c3c(=O)cc(C(=O)OCCC(C)C)oc32)c1C [Repirinast, Isopentyl 7,8-dimethyl-4,5-dioxo-5,6-dihydro-4H-pyrano[3,2-c]quinoline-2-carboxylate] | 0.0 | 23.5 | 0.2 | 23.7 | −0.3 | 23.2 | −2.0 | 21.5 | −1.8 | 21.8 | −2.5 | 21.1 | −2.2 | 21.4 | −1.3 | 22.3 | −1.6 | 21.9 | −1.3 | 22.3 | changes in body weight as compared to the BLM-vehicle group (in words) [1]: No significant differences; Trichrome score (average) (BLM-induced fibrosis [2]): 3.16; Trichrome score response versus BLM-vehicle group (in words) (BLM-induced fibrosis [2]): response was better; percent reduction in lung fibrosis in comparison to the BLM-vehicle group (in words) (BLM-induced fibrosis [2]): higher; % reduction in fibrosis (BLM-induced fibrosis [2]): 39.8%; improvement in lung fibrosis, loss of body weight, Trichrome score and mortality as compared to BLM-vehicle (conclusion, in words) (BLM-induced fibrosis [2]): showed improvement; Fatality Number (BLM-induced fibrosis [3]): 1/10; percent survival (in words) (BLM-induced fibrosis [3]): higher; Percent Fatality (BLM-induced fibrosis [3]): 10%
4 | C[C@@H]([C@H](O)c1ccc(O)cc1)N1CCC(Cc2ccccc2)CC1 (stereo in doubt) [Ifenoprodil, 4-[2-(4-benzylpiperidin-1-ium-1-yl)-1-hydroxypropyl] phenol; 2,3,4-trihydroxy-4-oxobutanoate] | 0.0 | 24.4 | −0.1 | 24.3 | −0.3 | 24.1 | −2.0 | 22.4 | −1.3 | 23.1 | −0.8 | 23.6 | −0.3 | 24.1 | 0.5 | 24.9 | 0.2 | 24.6 | 0.7 | 25.1 | changes in body weight as compared to the BLM-vehicle group (in words) [1]: showed improvement beginning on Day 5; Trichrome score (average) (BLM-induced fibrosis [2]): 3.37; Trichrome score response versus BLM-vehicle group (in words) (BLM-induced fibrosis [2]): response was better; percent reduction in lung fibrosis in comparison to the BLM-vehicle group (in words) (BLM-induced fibrosis [2]): higher; % reduction in fibrosis (BLM-induced fibrosis [2]): 34.0%; improvement in lung fibrosis, loss of body weight, Trichrome score and mortality as compared to BLM-vehicle (conclusion, in words) (BLM-induced fibrosis [2]): showed improvement; Fatality Number (BLM-induced fibrosis [3]): 0/10; percent survival (in words) (BLM-induced fibrosis [3]): higher; Percent Fatality (BLM-induced fibrosis [3]): 0%
